In patent EP4745135A1 (Gluetacs Therapeutics (Shanghai) Co., Ltd., priority 2023, dated 2025):

Assays:
CK1α = molecular target: T1, CK1α (Homo sapiens, UniProt P48729+Q96SW2); assay: Western blot, degradation of substrate protein in hPBMCs; format: cell-based
T1 construct: effects of the compounds of the present disclosure on the expression of target proteins in cells; endogenous in cells; host or cells: human PBMCs (Milecell Biotechnologies)

IKZF1 = molecular target: T2, IKZF1 (Homo sapiens, UniProt Q13422+Q96SW2); assay: as above; format: cell-based
T2 construct: effects of the compounds of the present disclosure on the expression of target proteins in cells; endogenous in cells; host or cells: human PBMCs (Milecell Biotechnologies)
T2 sequence (Q13422 whole entry): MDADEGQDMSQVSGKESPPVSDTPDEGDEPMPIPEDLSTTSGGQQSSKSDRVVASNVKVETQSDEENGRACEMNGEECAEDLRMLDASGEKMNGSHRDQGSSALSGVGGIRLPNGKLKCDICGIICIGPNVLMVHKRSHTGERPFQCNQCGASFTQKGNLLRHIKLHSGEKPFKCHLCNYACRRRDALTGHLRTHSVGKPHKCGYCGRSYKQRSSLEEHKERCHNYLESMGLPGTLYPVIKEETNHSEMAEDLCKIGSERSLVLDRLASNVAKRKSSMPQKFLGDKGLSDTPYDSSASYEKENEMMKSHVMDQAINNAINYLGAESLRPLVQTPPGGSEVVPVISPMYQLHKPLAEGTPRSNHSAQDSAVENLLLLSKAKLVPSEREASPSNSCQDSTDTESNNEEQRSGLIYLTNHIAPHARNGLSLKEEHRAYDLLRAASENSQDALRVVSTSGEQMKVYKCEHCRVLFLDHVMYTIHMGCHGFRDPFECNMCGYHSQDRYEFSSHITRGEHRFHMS
T2 sequence (Q96SW2 whole entry): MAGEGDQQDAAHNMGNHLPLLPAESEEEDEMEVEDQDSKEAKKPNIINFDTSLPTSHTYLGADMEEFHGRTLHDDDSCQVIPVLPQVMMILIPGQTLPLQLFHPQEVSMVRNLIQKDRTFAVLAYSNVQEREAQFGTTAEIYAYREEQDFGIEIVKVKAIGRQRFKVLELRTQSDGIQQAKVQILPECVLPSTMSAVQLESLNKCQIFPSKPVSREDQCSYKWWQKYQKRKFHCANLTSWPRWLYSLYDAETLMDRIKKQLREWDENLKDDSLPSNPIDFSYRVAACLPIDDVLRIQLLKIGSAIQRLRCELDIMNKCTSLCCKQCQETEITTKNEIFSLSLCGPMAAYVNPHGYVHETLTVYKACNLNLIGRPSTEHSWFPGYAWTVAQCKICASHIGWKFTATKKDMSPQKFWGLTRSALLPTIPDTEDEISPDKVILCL
T2 sequence (Q16531 whole entry partner): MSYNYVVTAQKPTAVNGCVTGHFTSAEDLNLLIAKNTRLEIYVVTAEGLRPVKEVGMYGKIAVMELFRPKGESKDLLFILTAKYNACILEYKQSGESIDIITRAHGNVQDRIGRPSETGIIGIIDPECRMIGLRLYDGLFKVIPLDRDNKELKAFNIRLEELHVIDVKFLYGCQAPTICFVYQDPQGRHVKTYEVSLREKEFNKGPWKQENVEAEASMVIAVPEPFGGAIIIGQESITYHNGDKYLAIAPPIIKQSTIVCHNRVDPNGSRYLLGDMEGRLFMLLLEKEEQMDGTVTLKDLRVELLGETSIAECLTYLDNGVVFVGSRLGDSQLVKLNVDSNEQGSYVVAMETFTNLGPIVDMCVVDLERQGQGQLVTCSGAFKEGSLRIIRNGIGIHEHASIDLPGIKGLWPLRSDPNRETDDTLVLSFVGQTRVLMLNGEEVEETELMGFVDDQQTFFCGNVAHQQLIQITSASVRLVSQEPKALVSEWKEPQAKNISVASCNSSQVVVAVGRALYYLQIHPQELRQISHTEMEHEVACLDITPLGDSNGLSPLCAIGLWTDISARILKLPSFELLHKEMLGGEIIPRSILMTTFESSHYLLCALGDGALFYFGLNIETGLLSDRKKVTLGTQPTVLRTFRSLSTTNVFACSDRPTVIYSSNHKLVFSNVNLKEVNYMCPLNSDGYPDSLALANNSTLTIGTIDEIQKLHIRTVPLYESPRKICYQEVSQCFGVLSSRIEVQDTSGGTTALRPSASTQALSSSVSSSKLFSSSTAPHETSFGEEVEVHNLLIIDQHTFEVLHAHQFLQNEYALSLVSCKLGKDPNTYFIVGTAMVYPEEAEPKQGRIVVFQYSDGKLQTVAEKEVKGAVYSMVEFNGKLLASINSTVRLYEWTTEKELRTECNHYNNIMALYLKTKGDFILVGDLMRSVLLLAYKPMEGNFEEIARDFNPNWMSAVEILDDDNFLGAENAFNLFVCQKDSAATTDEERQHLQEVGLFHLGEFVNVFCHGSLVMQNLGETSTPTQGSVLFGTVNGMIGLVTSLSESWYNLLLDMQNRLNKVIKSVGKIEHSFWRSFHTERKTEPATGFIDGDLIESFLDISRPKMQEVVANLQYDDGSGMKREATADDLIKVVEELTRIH

IKZF2 = molecular target: T3, IKZF2 (Homo sapiens, UniProt Q96SW2+Q9UKS7); assay: as above; format: cell-based
T3 construct: effects of the compounds of the present disclosure on the expression of target proteins in cells; endogenous in cells; host or cells: human PBMCs (Milecell Biotechnologies)
T3 sequence (Q9UKS7 whole entry): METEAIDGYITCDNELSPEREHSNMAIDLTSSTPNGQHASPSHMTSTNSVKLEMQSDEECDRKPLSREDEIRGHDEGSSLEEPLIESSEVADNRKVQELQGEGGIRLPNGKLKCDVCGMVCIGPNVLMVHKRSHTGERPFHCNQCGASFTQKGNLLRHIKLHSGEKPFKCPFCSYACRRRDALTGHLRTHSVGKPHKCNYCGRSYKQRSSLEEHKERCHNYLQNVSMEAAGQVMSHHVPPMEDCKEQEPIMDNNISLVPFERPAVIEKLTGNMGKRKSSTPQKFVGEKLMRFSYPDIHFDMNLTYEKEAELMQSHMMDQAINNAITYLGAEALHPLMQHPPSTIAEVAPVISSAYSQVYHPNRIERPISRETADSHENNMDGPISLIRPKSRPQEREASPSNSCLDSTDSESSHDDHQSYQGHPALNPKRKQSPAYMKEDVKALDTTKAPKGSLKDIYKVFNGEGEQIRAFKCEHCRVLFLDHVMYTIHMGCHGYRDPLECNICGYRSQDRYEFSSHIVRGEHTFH
T3 sequence (Q96SW2 whole entry): as the sequence (Q96SW2 whole entry) above
T3 sequence (Q16531 whole entry partner): as the sequence (Q16531 whole entry partner) above

IKZF3 = molecular target: T4, IKZF3 (Homo sapiens, UniProt Q96SW2+Q9UKT9); assay: as above; format: cell-based
T4 construct: effects of the compounds of the present disclosure on the expression of target proteins in cells; endogenous in cells; host or cells: human PBMCs (Milecell Biotechnologies)
T4 sequence (Q9UKT9 whole entry): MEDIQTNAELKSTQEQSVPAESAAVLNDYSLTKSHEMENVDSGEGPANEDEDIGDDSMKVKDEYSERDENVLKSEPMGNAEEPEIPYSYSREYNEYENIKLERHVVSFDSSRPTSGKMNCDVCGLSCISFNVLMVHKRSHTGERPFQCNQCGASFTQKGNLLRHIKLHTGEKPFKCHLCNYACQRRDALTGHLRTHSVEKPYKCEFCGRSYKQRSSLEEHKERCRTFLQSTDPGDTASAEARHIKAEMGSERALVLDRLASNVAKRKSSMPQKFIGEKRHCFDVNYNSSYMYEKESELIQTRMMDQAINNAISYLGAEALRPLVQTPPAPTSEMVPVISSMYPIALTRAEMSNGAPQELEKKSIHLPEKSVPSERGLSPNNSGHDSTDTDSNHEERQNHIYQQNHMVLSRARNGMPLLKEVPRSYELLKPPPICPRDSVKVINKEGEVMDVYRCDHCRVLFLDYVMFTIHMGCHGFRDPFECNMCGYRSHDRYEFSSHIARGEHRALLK
T4 sequence (Q96SW2 whole entry): as the sequence (Q96SW2 whole entry) above
T4 sequence (Q16531 whole entry partner): as the sequence (Q16531 whole entry partner) above

WEE1 = molecular target: T5, WEE1 (Homo sapiens, UniProt P30291+Q96SW2); assay: as above; format: cell-based
T5 construct: effects of the compounds of the present disclosure on the expression of target proteins in cells; endogenous in cells; host or cells: human PBMCs (Milecell Biotechnologies)
T5 sequence (P30291 whole entry): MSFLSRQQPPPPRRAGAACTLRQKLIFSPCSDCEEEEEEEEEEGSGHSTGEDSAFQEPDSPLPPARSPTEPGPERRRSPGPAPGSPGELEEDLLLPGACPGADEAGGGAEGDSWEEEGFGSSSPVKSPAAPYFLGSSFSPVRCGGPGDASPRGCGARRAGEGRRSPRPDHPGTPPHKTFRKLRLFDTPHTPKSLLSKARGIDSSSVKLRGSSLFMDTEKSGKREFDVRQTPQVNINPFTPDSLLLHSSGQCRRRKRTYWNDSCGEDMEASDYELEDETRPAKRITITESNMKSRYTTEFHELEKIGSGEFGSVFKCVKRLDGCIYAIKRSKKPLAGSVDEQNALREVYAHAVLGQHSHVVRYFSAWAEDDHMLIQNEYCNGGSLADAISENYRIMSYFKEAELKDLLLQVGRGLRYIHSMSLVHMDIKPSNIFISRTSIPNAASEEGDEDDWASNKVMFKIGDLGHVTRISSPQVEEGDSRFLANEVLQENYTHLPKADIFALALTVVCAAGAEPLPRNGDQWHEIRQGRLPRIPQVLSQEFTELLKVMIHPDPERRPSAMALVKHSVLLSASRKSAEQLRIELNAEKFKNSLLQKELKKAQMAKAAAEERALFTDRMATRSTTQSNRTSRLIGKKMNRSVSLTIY
T5 sequence (Q96SW2 whole entry): as the sequence (Q96SW2 whole entry) above
T5 sequence (Q16531 whole entry partner): as the sequence (Q16531 whole entry partner) above

GSPT1 = assay: as above; format: cell-based, Human
[1] = molecular target: T6, human Cereblon WT GST-tagged protein (Homo sapiens, UniProt Q96SW2); assay: CRBN-binding affinity, HTRF (CEREBLON BINDING kit); settings: for inhibition at 0.5 µM: read-out: Inhibition Rate at 0.5 µM (%); for inhibition at 2 µM: read-out: Inhibition Rate at 2 µM (%)
T6 construct: purchased CISBIO 64BDCRBNPEH
T6 sequence (Q96SW2 whole entry): as the sequence (Q96SW2 whole entry) above

[2] = Western blot, 24 hours of compound treatment, compounds tested at 50 nM and 500 nM (concentration for the table not stated)
[3] = 24 hours treatment, compounds at 50 nM and 500 nM (concentration behind the class not stated)

T1 sequence (P48729 whole entry): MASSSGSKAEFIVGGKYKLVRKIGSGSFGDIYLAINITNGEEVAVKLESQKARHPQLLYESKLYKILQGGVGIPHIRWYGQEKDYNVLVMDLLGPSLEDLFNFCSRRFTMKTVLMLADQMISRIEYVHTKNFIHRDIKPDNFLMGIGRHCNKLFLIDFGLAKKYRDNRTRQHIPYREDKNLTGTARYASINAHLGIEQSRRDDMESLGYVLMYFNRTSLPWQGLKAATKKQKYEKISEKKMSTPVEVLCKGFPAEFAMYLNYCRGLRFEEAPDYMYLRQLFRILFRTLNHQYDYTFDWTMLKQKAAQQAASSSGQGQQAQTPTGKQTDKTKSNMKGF
T1 sequence (Q96SW2 whole entry): as the sequence (Q96SW2 whole entry) above
T1 sequence (Q16531 whole entry partner): as the sequence (Q16531 whole entry partner) above

| Structure (SMILES) | CK1α substrate protein remaining % (CK1α; [2]) | IKZF 1 substrate protein remaining % (IKZF1; [2]) | IKZF2 substrate protein remaining % (IKZF2; [2]) | IKZF3 substrate protein remaining % (IKZF3; [2]) | Wee1 substrate protein remaining % (WEE1; [2]) | GSPT1 substrate protein remaining % (GSPT1; [2]) | inhibition at 0.5 µM [1] [%] | inhibition at 2 µM [1] [%] | CK1α substrate protein remaining % (CK1α; [3]) | IKZF 1 substrate protein remaining % (IKZF1; [3]) | IKZF2 substrate protein remaining % (IKZF2; [3]) | IKZF3 substrate protein remaining % (IKZF3; [3]) | Wee1 substrate protein remaining % (WEE1; [3]) | GSPT1 substrate protein remaining % (GSPT1; [3]) | IC50 ([1]; CRBN binding, HTRF, 3 hours at room temperature, read-out: HTRF IC50) [nM] |
| --- | --- | --- | --- | --- | --- | --- | --- | --- | --- | --- | --- | --- | --- | --- | --- |
| O=C1CCC(N2Cc3cc(CN4CCN(c5ccncc5Cl)CC4)ccc3C2=S)C(=O)N1 (centres unmarked) [GT-09238, 3-(5-((4-(3-chloropyridin-4-yl)piperazin-1-yl)methyl)-1-thioxoisoindolin-2-yl)piperidine-2,6-dione] | A (0% ≤ substrate protein remaining % ≤ 80%) | B (80%< substrate protein remaining %≤ 100%) | A (0% ≤ substrate protein remaining % ≤ 80%) | A (0% ≤ substrate protein remaining % ≤ 80%) | B (80%< substrate protein remaining %≤ 100%) | A (0% ≤ substrate protein remaining % ≤ 80%) | 60 to 80 | 80 to 100 | – | – | – | – | – | – | – |
| O=C1CCC(N2Cc3cc(CN4CCCN(C(c5ccccc5)c5ccccc5)CC4)ccc3C2=S)C(=O)N1 (centres unmarked) [GT-07848, 3-(5-((4-benzhydryl-1,4-diazepan-1-yl)methyl)-1-thioxoisoindolin-2-yl)piperidine-2,6-dione] | B (80%< substrate protein remaining %≤ 100%) | B (80%< substrate protein remaining %≤ 100%) | A (0% ≤ substrate protein remaining % ≤ 80%) | A (0% ≤ substrate protein remaining % ≤ 80%) | B (80%< substrate protein remaining %≤ 100%) | A (0% ≤ substrate protein remaining % ≤ 80%) | 30 to 40 | 80 to 100 | – | – | – | – | – | – | – |
| O=C1CCC(N2Cc3c(CN4CCN(c5cccc(C(F)(F)F)n5)CC4)cccc3C2=S)C(=O)N1 (centres unmarked) [GT-08701, 3-(1-thioxo-4-((4-(6-(trifluoromethyl)pyridin-2-yl)piperazin-1-yl)methyl)isoindolin-2-yl)piperidine-2,6-dione] | B (80%< substrate protein remaining %≤ 100%) | B (80%< substrate protein remaining %≤ 100%) | B (80%< substrate protein remaining %≤ 100%) | B (80%< substrate protein remaining %≤ 100%) | A (0% ≤ substrate protein remaining % ≤ 80%) | B (80%< substrate protein remaining %≤ 100%) | 40 to 53 | 80 to 100 | – | – | – | – | – | – | – |
| Cc1ccc(N2CCN(Cc3cccc4c3CN(C3CCC(=O)NC3=O)C4=S)CC2)s1 (centres unmarked) [GT-08305, 3-(4-((4-(5-methylthiophen-2-yl)piperazin-1-yl)methyl)-1-thioxoisoindolin-2-yl)piperidine-2,6-dione] | – | – | – | – | – | – | 60 to 80 | 80 to 100 | B (80%< substrate protein remaining %≤ 100%) | B (80%< substrate protein remaining %≤ 100%) | A (0% ≤ substrate protein remaining % ≤ 80%) | B (80%< substrate protein remaining %≤ 100%) | B (80%< substrate protein remaining %≤ 100%) | B (80%< substrate protein remaining %≤ 100%) | – |
| O=C1CCC(N2Cc3cc(CN4CCN(c5ccc(F)cc5F)CC4)ccc3C2=S)C(=O)N1 (centres unmarked) [GT-08613, 3-(5-((4-(2,4-difluorophenyl)piperazin-1-yl)methyl)-1-thioxoisoindolin-2-yl)piperidine-2,6-dione] | B (80%< substrate protein remaining %≤ 100%) | B (80%< substrate protein remaining %≤ 100%) | B (80%< substrate protein remaining %≤ 100%) | B (80%< substrate protein remaining %≤ 100%) | B (80%< substrate protein remaining %≤ 100%) | A (0% ≤ substrate protein remaining % ≤ 80%) | 60 to 80 | 80 to 100 | – | – | – | – | – | – | – |
| O=C1CCC(N2Cc3c(CN4CCN(c5ccncc5F)CC4)cccc3C2=S)C(=O)N1 (centres unmarked) [GT-08730, 3-(4-((4-(3-fluoropyridin-4-yl)piperazin-1-yl)methyl)-1-thioxoisoindolin-2-yl)piperidine-2,6-dione] | B (80%< substrate protein remaining %≤ 100%) | B (80%< substrate protein remaining %≤ 100%) | B (80%< substrate protein remaining %≤ 100%) | B (80%< substrate protein remaining %≤ 100%) | A (0% ≤ substrate protein remaining % ≤ 80%) | B (80%< substrate protein remaining %≤ 100%) | 60 to 80 | 80 to 100 | – | – | – | – | – | – | – |
| O=C1CCC(N2Cc3c(CN4CCN(c5cncc(Cl)c5Cl)CC4)cccc3C2=S)C(=O)N1 (centres unmarked) [GT-08724, 3-(4-((4-(4,5-dichloropyridin-3-yl)piperazin-1-yl)methyl)-1-thioxoisoindolin-2-yl)piperidine-2,6-dione] | B (80%< substrate protein remaining %≤ 100%) | B (80%< substrate protein remaining %≤ 100%) | B (80%< substrate protein remaining %≤ 100%) | B (80%< substrate protein remaining %≤ 100%) | A (0% ≤ substrate protein remaining % ≤ 80%) | B (80%< substrate protein remaining %≤ 100%) | 60 to 80 | 80 to 100 | – | – | – | – | – | – | – |
| O=C1CCC(N2Cc3cc(CN4CCN(c5ccncc5)CC4)ccc3C2=S)C(=O)N1 (centres unmarked) [GT-09233, 3-(5-((4-(pyridin-4-yl)piperazin-1-yl)methyl)-1-thioxoisoindolin-2-yl)piperidine-2,6-dione] | A (0% ≤ substrate protein remaining % ≤ 80%) | A (0% ≤ substrate protein remaining % ≤ 80%) | A (0% ≤ substrate protein remaining % ≤ 80%) | A (0% ≤ substrate protein remaining % ≤ 80%) | A (0% ≤ substrate protein remaining % ≤ 80%) | A (0% ≤ substrate protein remaining % ≤ 80%) | 60 to 80 | 80 to 100 | – | – | – | – | – | – | – |
| O=C1CCC(N2Cc3ccccc3C2=S)C(=O)N1 (centres unmarked) [GT-05563, 3-(1-thioxoisoindolin-2-yl)piperidine-2,6-dione] | – | – | – | – | – | – | – | – | B (80%< substrate protein remaining %≤ 100%) | A (0% ≤ substrate protein remaining % ≤ 80%) | A (0% ≤ substrate protein remaining % ≤ 80%) | A (0% ≤ substrate protein remaining % ≤ 80%) | A (0% ≤ substrate protein remaining % ≤ 80%) | B (80%< substrate protein remaining %≤ 100%) | < 100 |
